Tests used:
GenB2 [1] = target: T1, GenB2 (Micromonospora echinospora, UniProt Q70KE6); test: X-ray crystal structure of the complex; conditions: ternary complex with PMP; substrate-binding site; at least 100 mM ligand, pH 6.0, 18 °C
T1 construct: gene gacE; full length in pET28a, E. coli BL21(DE3), nickel IMAC and gel filtration; plasmid carries an extra 57 nucleotides at the 5' end; homodimer

GenB2 [2] = target: T1, GenB2; test: epimerisation to gentamicin C2a, HPLC; format: biochemical; conditions: 200 μM substrate, 20 μM enzyme, 50 mM Tris-HCl pH 8.0, 30 °C, overnight
GenB2 [3] = target: T1, GenB2; test: X-ray crystal structure of the holo enzyme; format: binding; conditions: copurified; coenzyme site at the dimer interface, no Schiff base with Lys227; pH 6.0
GenB2 [4] = target: T1, GenB2; test: epimerisation to gentamicin C2, HPLC; format: biochemical; conditions: 200 μM substrate, 20 μM enzyme, 50 mM Tris-HCl pH 8.0, 30 °C, overnight
[5] = target: GenB2 (Micromonospora echinospora); test: not stated; GenB2 in solution; the method is not told
[6] = target: GenB2 (Micromonospora echinospora); test: crystal structure; holo GenB2 (PMP) and its complexes with G418 or gentamicin X2; space group C222(1), a single protomer in the asymmetric unit, dimer obtained by a symmetry operation; 0.1 M PIPES pH 6.0, 1 M NaCl, 29% PEG 4000, 30% 6-aminohexanoic acid, 18 °C

T1 sequence (Q70KE6 entry or part of it): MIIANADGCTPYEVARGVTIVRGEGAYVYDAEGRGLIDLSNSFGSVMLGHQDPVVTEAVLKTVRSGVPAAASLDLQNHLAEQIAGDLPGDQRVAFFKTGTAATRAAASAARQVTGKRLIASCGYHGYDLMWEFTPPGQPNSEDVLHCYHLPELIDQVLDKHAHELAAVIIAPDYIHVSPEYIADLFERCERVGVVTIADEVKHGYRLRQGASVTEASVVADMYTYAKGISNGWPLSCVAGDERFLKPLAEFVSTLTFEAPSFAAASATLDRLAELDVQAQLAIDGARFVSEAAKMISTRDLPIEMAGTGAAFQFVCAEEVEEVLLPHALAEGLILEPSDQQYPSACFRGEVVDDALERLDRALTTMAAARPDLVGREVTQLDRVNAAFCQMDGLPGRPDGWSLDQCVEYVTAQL

Compound: CN[C@@H]1[C@@H](O)[C@@H](O[C@@H]2[C@@H](O)[C@H](O[C@H]3O[C@H](CO)[C@@H](O)[C@H](O)[C@H]3N)[C@@H](N)C[C@H]2N)OC[C@]1(C)O (stereo in doubt) [gentamicin X2]
- X-ray crystal structure of the complex (GenB2 [1]): we have obtained the structure of GenB2 in complex with gentamicin G418 and gentamicin X2

Compound: CN[C@@H]1[C@@H](O)[C@@H](O[C@@H]2[C@@H](O)[C@H](O[C@H]3O[C@H]([C@@H](C)N)CC[C@H]3N)[C@@H](N)C[C@H]2N)OC[C@]1(C)O [gentamicin C2]
- epimerisation to gentamicin C2a, HPLC (GenB2 [2]): conversion of gentamicin C2 into C2a or C2a into C2

Compound: Cc1ncc(COP(=O)(O)O)c(CN)c1O [pyridoxamine 5-phosphate]
- X-ray crystal structure of the holo enzyme (GenB2 [3]): Each dimer of GenB2 has two PMP molecules bound at the interfaces between the protomers

Compound: CN[C@@H]1[C@@H](O)[C@@H](O[C@@H]2[C@@H](O)[C@H](O[C@H]3O[C@H]([C@H](C)N)CC[C@H]3N)[C@@H](N)C[C@H]2N)OC[C@]1(C)O [gentamicin C2a]
- epimerisation to gentamicin C2, HPLC (GenB2 [4]): wild-type GenB2 was able to perform a high ratio of conversion

Compound: GenB2 (enzyme)
- stoichiometry N [5]: 2
- stoichiometry N [6]: 2

Source: PMC11420954, “Structural and Functional Basis of GenB2 Isomerase Activity from Gentamicin Biosynthesis” (ACS Chemical Biology, 2024)
